Assay results as given in patent US20240182460A1, “ALLOSTERIC CHROMENONE INHIBITORS OF PHOSPHOINOSITIDE 3-KINASE (PI3K) FOR THE TREATMENT OF DISEASE” (PETRA PHARMA CORPORATION, priority 2022, published 2024).

Experiments:
PI3Kα H1047R = molecular target: T1, PI3Kα H1047R (Homo sapiens, UniProt P42336, H1047R); assay: PI3Kα H1047R mutant in vitro cell based assay, MDA-MB-453 cells (AlphaLisa SureFire); details: MDA-MB-453 cell line, 0% FBS, 3 hours treatment
T1 construct: The MDA-MB-453 (ATCC-HTB-131) cell line (PI3Kα H1047R); host or cells: MDA-MB-453
T1 sequence (P42336 whole entry H1047R): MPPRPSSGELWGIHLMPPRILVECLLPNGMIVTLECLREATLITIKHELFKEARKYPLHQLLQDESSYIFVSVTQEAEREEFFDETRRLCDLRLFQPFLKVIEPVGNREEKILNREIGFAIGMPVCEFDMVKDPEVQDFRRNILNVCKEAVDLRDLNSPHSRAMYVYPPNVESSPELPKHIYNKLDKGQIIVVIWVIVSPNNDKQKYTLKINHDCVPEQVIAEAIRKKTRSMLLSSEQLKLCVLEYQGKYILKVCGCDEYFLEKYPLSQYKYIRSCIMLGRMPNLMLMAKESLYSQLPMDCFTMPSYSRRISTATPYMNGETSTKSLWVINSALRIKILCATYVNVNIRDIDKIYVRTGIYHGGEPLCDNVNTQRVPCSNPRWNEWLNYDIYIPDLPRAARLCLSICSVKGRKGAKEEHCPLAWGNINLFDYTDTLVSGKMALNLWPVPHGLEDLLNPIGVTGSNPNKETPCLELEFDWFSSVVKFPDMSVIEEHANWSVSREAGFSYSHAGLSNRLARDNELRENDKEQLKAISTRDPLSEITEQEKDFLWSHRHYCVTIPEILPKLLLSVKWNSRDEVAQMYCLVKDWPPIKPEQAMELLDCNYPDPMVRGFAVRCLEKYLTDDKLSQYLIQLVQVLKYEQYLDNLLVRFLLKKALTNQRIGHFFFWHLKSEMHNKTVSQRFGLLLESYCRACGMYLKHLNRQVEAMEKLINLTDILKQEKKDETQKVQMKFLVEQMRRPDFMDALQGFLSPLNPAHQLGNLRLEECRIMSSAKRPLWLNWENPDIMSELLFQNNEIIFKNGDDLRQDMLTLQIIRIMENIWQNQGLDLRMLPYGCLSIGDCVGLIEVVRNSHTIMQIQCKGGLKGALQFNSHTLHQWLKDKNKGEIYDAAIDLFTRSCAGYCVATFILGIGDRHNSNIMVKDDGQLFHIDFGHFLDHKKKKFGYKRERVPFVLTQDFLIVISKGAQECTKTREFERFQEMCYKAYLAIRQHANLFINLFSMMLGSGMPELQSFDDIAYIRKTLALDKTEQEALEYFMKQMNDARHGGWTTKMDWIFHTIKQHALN
T1 sequence (P27986 whole entry partner): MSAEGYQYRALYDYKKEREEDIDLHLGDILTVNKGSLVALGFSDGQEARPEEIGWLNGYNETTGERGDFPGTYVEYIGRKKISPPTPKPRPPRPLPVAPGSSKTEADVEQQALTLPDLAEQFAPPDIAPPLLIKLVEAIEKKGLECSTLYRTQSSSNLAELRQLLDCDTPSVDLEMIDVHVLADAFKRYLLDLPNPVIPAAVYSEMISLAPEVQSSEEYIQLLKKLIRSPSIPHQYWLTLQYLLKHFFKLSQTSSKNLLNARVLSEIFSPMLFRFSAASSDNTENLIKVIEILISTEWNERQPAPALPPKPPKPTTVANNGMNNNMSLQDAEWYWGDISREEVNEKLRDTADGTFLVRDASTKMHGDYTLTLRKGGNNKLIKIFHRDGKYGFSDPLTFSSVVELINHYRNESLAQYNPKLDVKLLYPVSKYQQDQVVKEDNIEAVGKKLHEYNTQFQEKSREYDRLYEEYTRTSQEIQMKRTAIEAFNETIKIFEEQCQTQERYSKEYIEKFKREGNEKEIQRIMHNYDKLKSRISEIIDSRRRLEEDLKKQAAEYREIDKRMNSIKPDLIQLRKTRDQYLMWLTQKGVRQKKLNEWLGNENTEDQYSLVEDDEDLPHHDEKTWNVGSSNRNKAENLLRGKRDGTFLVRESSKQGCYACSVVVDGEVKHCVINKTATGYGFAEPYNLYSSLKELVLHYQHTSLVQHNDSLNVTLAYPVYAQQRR
Summary of the method: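 MDA-MB-453 cells (endogenous PI3Kα H1047R) were treated for 3 h in serum-free MEM containing 1 μg/mL insulin, with 10-point 1:3 dilutions in 0.3% DMSO. Lysates were read by AlphaLisa SureFire. IC50 came from a 4-parameter logistic fit of duplicate % inhibition, normalized to DMSO (max) and 1 μM GDC-0032 (min).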

PI3Kα E545K [1] = molecular target: T2, PI3Kα E545K (Homo sapiens, UniProt P42336, E545K); assay: PI3Kα E545K mutant in vitro cell based assay, MDA-MB-361 cells; parameters: MDA-MB-361 (ATCC-HTB-27) cell line (PI3Kα E545K); host or cells: MDA-MB-361; details: MDA-MB-361 cell line, 0% FBS, no insulin, 3 hours treatment
T2 sequence (P42336 whole entry E545K): as the sequence (P42336 whole entry H1047R) above, with E545K, R1047H counted along it
T2 sequence (P27986 whole entry partner): as the sequence (P27986 whole entry partner) above
Summary of the method: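 MDA-MB-361 cells (PI3Kα E545K) seeded in serum-free MEM assay medium without insulin, attached overnight, then treated 3 h with compound (10-point 1:3 series, 0.3% DMSO). AlphaLISA SureFire readout of lysates. IC50 by 4-parameter fit, normalized to DMSO (max) and 1 μM GDC-0032 (min).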

PI3Kα E545K [2] = molecular target: T2, PI3Kα E545K; assay: PI3Kα E545K mutant in vitro cell based assay, MCF-7 cells; details: MCF-7 cell line, 0% FBS, 3 hours treatment
Summary of the method: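 MCF-7 cells (PI3Kα E545K) in serum-free MEM with 1 μg/mL insulin were treated 3 h with 10-point 1:3 dilutions in 0.3% DMSO. Lysates were read by SureFire AlphaLisa. IC50 was fitted by 4-parameter logistic to % inhibition relative to DMSO (max) and 1 μM GDC-0032 (min), duplicates averaged.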

SMILES | IC50 (PI3Kα H1047R) [µM] | IC50 (PI3Kα E545K [1]) [µM] | IC50 (PI3Kα E545K [2]) [µM]
Cc1cc([C@@H](C)Oc2ccc(Cl)nc2NS(C)(=O)=O)c2oc(-c3cnn(C)c3)c(C)c(=O)c2c1 [Example 149A, N-[6-Chloro-3-[(1R)-1-[3,6-dimethyl-2-(1-methylpyrazol-4-yl)-4-oxo-chromen-8-yl]ethoxy]-2-pyridyl]methanesulfonamide] | – | < 0.5 | < 0.5
Cc1cc([C@@H](C)Oc2ccc(Br)nc2C(N)=O)c2oc(-c3ccc4nn(C)cc4c3)c(C)c(=O)c2c1 [Example 81C, 6-Bromo-3-[(1R)-1-[3,6-dimethyl-2-(2-methylindazol-5-yl)-4-oxo-chromen-8-yl]ethoxy]pyridine-2-carboxamide] | < 0.1 | < 0.5 | –
Cc1cc([C@@H](C)Oc2ccc(Cl)nc2C(N)=O)c2oc(-c3cc(F)c4nn(C)cc4c3)c(C)c(=O)c2c1 [Example 17B, 6-Chloro-3-[(1R)-1-[2-(7-fluoro-2-methyl-indazol-5-yl)-3,6-dimethyl-4-oxo-chromen-8-yl]ethoxy]pyridine-2-carboxamide] | < 0.1 | < 0.5 | –

Now from value to molecule, other results behind:

IC50 (PI3Kα H1047R) [µM] | IC50 (PI3Kα E545K [1]) [µM] | SMILES | IC50 (PI3Kα E545K [2]) [µM]
< 0.1 | < 0.5 | CC(=O)Nc1ccc(-c2oc3c([C@@H](C)Oc4ccc(Cl)nc4C(N)=O)cc(C)cc3c(=O)c2C)cc1 [Example 58C, 3-[(1R)-1-[2-(4-Acetamidophenyl)-3,6-dimethyl-4-oxo-chromen-8-yl]ethoxy]-6-chloro-pyridine-2-carboxamide] | –
< 0.1 | < 0.5 | Cc1cc([C@@H](C)Oc2ccc(Cl)nc2-c2noc(=O)[nH]2)c2oc(-c3ccc4c(c3)OC(F)(F)O4)c(C)c(=O)c2c1 [Example 46A, 3-[6-Chloro-3-[(1R)-1-[2-(2,2-difluoro-1,3-benzodioxol-5-yl)-3,6-dimethyl-4-oxo-chromen-8-yl]ethoxy]-2-pyridyl]-4H-1,2,4-oxadiazol-5-one] | < 0.5
